Laboratory results taken from patent publication EP4678634A1, “ANDROGEN RECEPTOR MODULATORS AND USES THEREOF” (Haihe Biopharma Co., Ltd., priority 2023, dated 2024).

Target: T1, Androgen receptor (AR) (Homo sapiens, UniProt P10275)
T1 construct: expressed in transfected cells; host or cells: HEK293T (AR+ARE/Luc)
T1 sequence (P10275 1-920): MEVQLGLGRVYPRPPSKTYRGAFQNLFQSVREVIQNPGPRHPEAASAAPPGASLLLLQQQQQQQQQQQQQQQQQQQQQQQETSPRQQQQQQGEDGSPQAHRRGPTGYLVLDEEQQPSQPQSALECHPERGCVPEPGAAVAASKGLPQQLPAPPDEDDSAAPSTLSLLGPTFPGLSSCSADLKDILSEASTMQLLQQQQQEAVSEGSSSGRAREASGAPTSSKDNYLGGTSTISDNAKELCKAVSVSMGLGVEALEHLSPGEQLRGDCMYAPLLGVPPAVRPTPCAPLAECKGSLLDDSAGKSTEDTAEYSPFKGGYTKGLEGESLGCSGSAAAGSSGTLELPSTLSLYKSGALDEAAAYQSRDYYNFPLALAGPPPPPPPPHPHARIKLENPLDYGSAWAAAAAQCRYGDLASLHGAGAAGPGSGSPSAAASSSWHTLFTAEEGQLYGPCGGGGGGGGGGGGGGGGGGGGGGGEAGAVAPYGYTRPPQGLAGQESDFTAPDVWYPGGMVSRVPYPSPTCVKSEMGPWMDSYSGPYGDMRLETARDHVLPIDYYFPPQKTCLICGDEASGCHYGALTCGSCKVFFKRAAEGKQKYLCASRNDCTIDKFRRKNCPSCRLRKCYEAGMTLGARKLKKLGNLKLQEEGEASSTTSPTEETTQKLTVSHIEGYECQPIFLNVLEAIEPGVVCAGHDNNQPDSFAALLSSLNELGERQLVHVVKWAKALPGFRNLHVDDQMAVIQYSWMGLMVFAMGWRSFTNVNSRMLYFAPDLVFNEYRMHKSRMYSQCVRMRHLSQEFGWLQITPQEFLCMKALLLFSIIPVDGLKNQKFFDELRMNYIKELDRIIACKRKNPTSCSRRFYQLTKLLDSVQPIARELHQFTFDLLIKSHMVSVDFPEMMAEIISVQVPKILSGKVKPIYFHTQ
Assay: Androgen receptor (AR) reporter gene assay (luciferase)
Type: cell-based
Settings: AR+ARE/Luc HEK293T cells, stimulated with 11-KDHT, 24h incubation, Bright-Lite luminescence; read-out: HEK293 Luc IC50
Experimental: Androgen receptor (AR) reporter gene assay
Experimental reagents: 11-Ketodihydrotestosterone (11-KDHT) was purchased from MCE (cat.HY-135794); Enzalutamide (MDV3100) was purchased from Selleck (cat.S1250); Bright-Lite Luciferase Assay kit was purchased from Vazyme (cat.DD1204-01);
• 1. dissolve the described compounds in 100% DMSO at a final concentration of 10 mM. 100 nL each of 400X compound to be tested and 400X 11-KDHT (40 nM) were added to a 384-well assay plate with Echo, followed by 20 µL of complete medium, and centrifuged at 1000 rpm for 1 min, and oscillated for 20-30 min at room temperature. • 2. 20 µL of AR+ARE/Luc HEK293T cells (10,000 cells/well) were inoculated into the assay plate containing the compounds and 11-KDHT, and centrifuged at 1000 rpm for 1 min. The assay plate was incubated in a 37 °C CO2 incubator for 24h. • 3. 40 µL of Bright-Lite assay reagent was transferred to each well of the assay plate, centrifuged at 1000 rpm for 1 min, and shaken for 2 min at room temperature protected from light. Luminescence values (RLU) were measured using Envision. Based on the results, the IC50 values of the compounds described were calculated. Table 1 HEK293-Luc% inhibition IC50 of representative compounds

Row | IC50 | Structure (SMILES)
1 | 1 to 500 nM | N#Cc1cc2c(c(Cl)c1OCCCl)CCCC2Nc1cnc2[nH]ncc2c1 (racemic) [HANT-192, 8-((1H-pyrazolo[3,4-b]pyridin-5-yl)amino)-4-chloro-3-(2-chloroethoxy)-5,6,7,8-tetrahydronaph thalene-2-carbonitrile]
2 | 1 to 500 nM | ClCCOc1c(Cl)cc2c(c1Cl)CCCC2c1ccc2[nH]ncc2c1 (stereo not drawn) [HANT-100, 5-(5,7-dichloro-6-(2-chloroethoxy)-1,2,3,4-tetrahydronaphthalen-1-yl)-1H-indazole]
3 | 500 to 1000 nM | Oc1ccc(C2CCCc3c2cc(Cl)c(OCCCl)c3Cl)nc1 (stereo not drawn) [HANT-102, 6-(5,7-dichloro-6-(2-chloroethoxy)-1,2,3,4-tetrahydronaphthalen-1-yl)pyridin-3-ol]
4 | 500 to 1000 nM | Fc1cc2c(c(F)c1OCCCl)CCCC2c1ccc2[nH]ncc2c1 (stereo not drawn) [HANT-103, 5-(6-(2-chloroethoxy)-5,7-difluoro-1,2,3,4-tetrahydronaphthalen-1-yl)-1H indazole]
5 | 1 to 500 nM | Oc1ccc(C2CCCc3c2cc(Cl)c(OCCCl)c3Cl)c(F)c1 (stereo not drawn) [HANT-110, 4-(5,7-dichloro-6-(2-chloroethoxy)-1,2,3,4-tetrahydronaphthalen-1-yl)-3-fluorophenol]
6 | 500 to 1000 nM | ClCCOc1c(Cl)cc2c(c1Cl)CCCC2c1ccc2[nH]nnc2c1 (stereo not drawn) [HANT-113, 5-(5,7-dichloro-6-(2-chloroethoxy)-1,2,3,4-tetrahydronaphthalen-1-yl)-1H-benzo[d][1,2,3]triaz ole]
7 | 1 to 500 nM | CN1CCc2c(cc(Cl)c(OCCCl)c2Cl)C1c1ccc(O)cc1 (stereo not drawn) [HANT-115, 4-(5,7-dichloro-6-(2-chloroethoxy)-2-methyl-1,2,3,4-tetrahydroisoquinolin-1-yl)phenol]
8 | 1 to 500 nM | CCCOc1c(C#N)cc2c(c1Cl)CCCC2Nc1ccc(OC)nc1 (stereo not drawn) [HANT-121]
9 | 1 to 500 nM | N#Cc1cc2c(c(Cl)c1OCCCl)CCCC2Nc1ccc(OCCO)nc1 (stereo not drawn) [HANT-122]
10 | 500 to 1000 nM | OC1CCN(C2CCCc3c2cc(Cl)c(OCCCl)c3Cl)CC1 (stereo not drawn) [HANT-123]
11 | 1 to 500 nM | ClCCOc1c(Cl)cc2c(c1Cl)CCCC2N1CCc2[nH]ncc2C1 (stereo not drawn) [HANT-125]
12 | 500 to 1000 nM | ClCCOc1c(Cl)cc2c(c1Cl)CCCN2c1ccc2[nH]ncc2c1 [HANT-127, 5,7-dichloro-6-(2-chloroethoxy)-1-(1H-indazol-5-yl)-1,2,3,4-tetrahydroquinoline]
13 | > 2000 nM | CNC(=O)c1n[nH]c2ccc(C3CCCc4c3cc(Cl)c(OCCCl)c4Cl)cc12 (stereo not drawn) [HANT-132, 5-(5,7-dichloro-6-(2-chloroethoxy)-1,2,3,4-tetrahydronaphthalen-1-yl)-N-methyl-1H-indazole-3-carboxamide]
14 | > 2000 nM | N#Cc1cc2c(c(Cl)c1OCCCl)CCCC2c1cnc2[nH]ncc2c1 (stereo not drawn) [HANT-150B, 4-chloro-3-(2-chloroethoxy)-8-(1H-pyrazolo[3,4-b]pyridin-5-yl)-5,6,7,8-tetrahydronaphthalene-2-carbonitrile]
15 | > 2000 nM | ClCCOc1c(Cl)cc2c(c1Cl)CCCN2c1cc2cn[nH]c2cn1 [HANT-164, 5,7-dichloro-6-(2-chloroethoxy)-1-(1H-pyrazolo[3,4-c]pyridin-5-yl)-1,2,3,4-tetrahydroquinoline]
16 | > 2000 nM | ClCCOc1c(Cl)cc2c(c1Cl)CCCN2c1ccc2[nH]ncc2n1 [HANT-165, 5,7-dichloro-6-(2-chloroethoxy)-1-(1H-pyrazolo[4,3-b]pyridin-5-yl)-1,2,3,4-tetrahydroquinoline]

Further lines, the compound ahead of its results:

Row | Structure (SMILES) | IC50
17 | CN1CCc2c(cc(Cl)c(OCCCl)c2Cl)C1c1ccc2[nH]ncc2c1 (racemic) [HANT-146, 5,7-dichloro-6-(2-chloroethoxy)-1-(1H-indazol-5-yl)-2-methyl-1,2,3,4-tetrahydroisoquinoline] | 1 to 500 nM
18 | N#Cc1cc2c(c(Cl)c1OCCCl)CCCC2c1cnc(N)nc1 (racemic) [HANT-204] | 1 to 500 nM
19 | Oc1ccc(C2CCCc3c2cc(Cl)c(OCCCl)c3Cl)cn1 (stereo not drawn) [HANT-101] | 1000 to 2000 nM
20 | N#Cc1cc2c(c(Cl)c1OCCCl)CCCC2c1ccc(O)cc1 (stereo not drawn) [HANT-105, 4-chloro-3-(2-chloroethoxy)-8-(4-hydroxyphenyl)-5,6,7,8-tetrahydronaphthalene-2-carbonitrile] | 1 to 500 nM
21 | N#Cc1c2c(cc(Cl)c1OCCCl)C(c1ccc(O)cc1)CCC2 (stereo not drawn) [HANT-106, 3-chloro-2-(2-chloroethoxy)-5-(4-hydroxyphenyl)-5,6,7,8-tetrahydronaphthalene-1-carbonitrile] | 1 to 500 nM
22 | Oc1ccc(C2CCc3cc(OCCCl)c(Cl)cc32)cc1 (stereo not drawn) [HANT-107, 4-(6-chloro-5-(2-chloroethoxy)-2,3-dihydro-1H-inden-1-yl)phenol] | 1000 to 2000 nM
23 | Oc1ccc(C2CCc3c2ccc(OCCCl)c3Cl)cc1 (stereo not drawn) [HANT-108, 4-(4-chloro-5-(2-chloroethoxy)-2,3-dihydro-1H-inden-1-yl)phenol] | 1 to 500 nM
24 | Oc1ccc(C2CCCc3c2cc(Cl)c(OCCCl)c3Cl)cc1F (stereo not drawn) [HANT-109] | 1000 to 2000 nM
25 | ClCCOc1c(Cl)cc2c(c1Cl)CCCC2c1ccc2[nH]cnc2c1 (stereo not drawn) [HANT-112] | 500 to 1000 nM
26 | O=c1[nH]c2ccc(C3CCCc4c3cc(Cl)c(OCCCl)c4Cl)cc2o1 (stereo not drawn) [HANT-114] | 1 to 500 nM
27 | Cn1c(=O)[nH]c2ccc(C3CCCc4c3cc(Cl)c(OCCCl)c4Cl)cc21 (stereo not drawn) [HANT-117] | 1000 to 2000 nM
28 | ClCCOc1c(Cl)cc2c(c1Cl)CCC[C@H]2c1ccc2[nH]ncc2c1 [HANT-118] | 1 to 500 nM
29 | Oc1ccc2c(c1)CCN(C1CCCc3c1cc(Cl)c(OCCCl)c3Cl)C2 (stereo not drawn) [HANT-124, 2-(5,7-dichloro-6-(2-chloroethoxy)-1,2,3,4-tetrahydronaphthalen-1-yl)-1,2,3,4-tetrahydroisoqui nolin-6-ol] | > 2000 nM
30 | ClCCOc1c(Cl)cc2c(c1Cl)CCCC2N1CCc2cn[nH]c2C1 (stereo not drawn) [HANT-126] | 500 to 1000 nM
31 | Cn1ncc2cc(C3CCCc4c3cc(Cl)c(OCCCl)c4Cl)ccc21 (stereo not drawn) [HANT-131] | > 2000 nM
32 | Nc1n[nH]c2ccc(C3CCCc4c3cc(Cl)c(OCCCl)c4Cl)cc12 (stereo not drawn) [HANT-133, 5-(5,7-dichloro-6-(2-chloroethoxy)-1,2,3,4-tetrahydronaphthalen-1-yl)-1H-indazol-3-amine] | 1000 to 2000 nM
33 | ClCCOc1c(Cl)cc2c(c1Cl)CCCC2c1ccc2cn[nH]c2c1 (stereo not drawn) [HANT-134] | 1 to 500 nM
34 | O=C1Cc2cc(C3CCCc4c3cc(Cl)c(OCCCl)c4Cl)ccc2N1 (stereo not drawn) [HANT-135] | 1 to 500 nM
35 | COc1cc(O)ccc1C1CCCc2c1cc(Cl)c(OCCCl)c2Cl (stereo not drawn) [HANT-137] | 1000 to 2000 nM
36 | N#Cc1cc2c(c(Cl)c1OCCCl)CCCC2c1ccc2[nH]ncc2c1 (stereo not drawn) [HANT-144A, 4-chloro-3-(2-chloroethoxy)-8-(1H-indazol-5-yl)-5,6,7,8-tetrahydronaphthalene-2-carbonitrile] | > 2000 nM
37 | N#Cc1cc2c(c(Cl)c1OCCCl)CCCC2c1ccc2[nH]ncc2c1 (stereo not drawn) [HANT-144B, 4-chloro-3-(2-chloroethoxy)-8-(1H-indazol-5-yl)-5,6,7,8-tetrahydronaphthalene-2-carbonitrile] | 1 to 500 nM
38 | N#Cc1cc2c(c(Cl)c1OCCCl)CCCC2c1ccc2[nH]ncc2n1 (stereo not drawn) [HANT-148, 4-chloro-3-(2-chloroethoxy)-8-(1H-pyrazolo[4,3-b]pyridin-5-yl)-5,6,7,8-tetrahydronaphthalene-2-carbonitrile] | 500 to 1000 nM
39 | N#Cc1cc2c(c(Cl)c1OCCCl)CCCC2c1cc2cn[nH]c2cn1 (stereo not drawn) [HANT-149] | 1 to 500 nM
40 | N#Cc1cc2c(c(Cl)c1OCCCl)CCCC2c1cnc2[nH]ncc2c1 (stereo not drawn) [HANT-150A, 4-chloro-3-(2-chloroethoxy)-8-(1H-pyrazolo[3,4-b]pyridin-5-yl)-5,6,7,8-tetrahydronaphthalene-2-carbonitrile] | 1 to 500 nM
41 | ClCCOc1c(Cl)cc2c(c1Cl)CCCN2c1cnc2[nH]ncc2c1 [HANT-166, 5,7-dichloro-6-(2-chloroethoxy)-1-(1H-pyrazolo[3,4-b]pyridin-5-yl)-1,2,3,4-tetrahydroquinoline] | 500 to 1000 nM
42 | N#Cc1cc2c(c(Cl)c1OCCCl)CCCC2Nc1ccc(N2CCOCC2)nc1 (stereo not drawn) [HANT-170] | 500 to 1000 nM
